Where no end group is shown, it is not given here. [ ]: non-standard residue; d: D form. Dopa = N[C@@H](Cc1ccc(O)c(O)c1)C(=O)O
How the values were obtained:
[1] = tested on: total splenocytes restimulated with MHC class-1 epitope KVPRNQDWL (human gp100); format: in vivo, C57-B16 mice; conditions: for CD8 immune response with various melanin precursors: 10 μg hgp100 epitope co-incubated with melanin precursor, pH 8.5 Tris, + 10 μg CpG-28, subcutaneous; for number of IFNy-secreting lymphocytes mean +/− SD: gp100 peptide 10 μg/mouse + L-Dopa 40 μg/mouse incubated 18 hours aerated, mixed with the TLR9 agonist
Protocol: (§1) […] After 2 immunizations, the CD8+immune response was evaluated on day 14 using a gamma interferon (IFNg)-secretion Elispot assay, after restimulation of total splenocytes with the relevant MHC class-1 epitope ([…] (SEQ ID NO: 2) for Ovalbumine or […] (SEQ ID NO: 3) for human gp100)

[2] = tested on: total splenocytes restimulated with MHC class-1 epitope SIINFEKL (Ovalbumine); experiment: IFNg-secretion Elispot of splenocytes after immunization, restimulation with Ovalbumine epitope; format: in vivo, C57-B16 mice; conditions: for CD8 immune response (IFNg spots): Ovalbumine epitope alone or mixed with 10 μg DOPA, with or without 18 hours oxygen incubation, + CpG-28; for CD8 immune response (IFNg spots) / CD8 / CTL immune response: day 14; for CD8 / CTL immune response: 1 μg peptide + 10 μg CpG-28, day 0 & day 7; for immune response, Dopamine as melanin precursor: peptides with Dopamine; for immune response after 2 immunizations, Dopa as melanin precursor: 3.6 μg peptide co-incubated 18 hours with 100 μg DOPA pH 8.5
Protocol: as §1

[3] = Solubility and stability of oxidized Dopa or Dopamine solutions; format: physicochemical; conditions: for precipitation under centrifugation: 2 mg/ml oxidized solution, Dopa: oxygen at pH8.5, 16 000 g for 30 minutes; for aggregates under light microscopy: 2 mg/ml solution oxidized 20 hours, with or without pOVA 0.1 mg/ml
Protocol: Dopa (2 mg/ml) or Dopamine (2 mg/ml) solutions were incubated with or without the pOVA (0.1 mg/ml) at pH 7.4 or 8.5, and with different oxidizing agents (O2, ammonium persulfate) for 20 hours. All solutions darkened within a few hours. […] Under centrifugation, the dopamine solutions precipitated, and some dark material remained adherent to the tubes.

[4] = tested on: IFNγ-secreting lymphocytes; experiment: Elispot after immunization with formulations oxidized by different agents (Example 2, Table 1); format: in vivo, mice; conditions: H2O2 or ammonium persulfate as oxidant
Protocol: (§2) C57-B16, 5-week old, mice were immunized twice (on day 1 and day 7) with the different formulations combined to a Toll-like Receptor 9 (TLR-9) agonist (10 μg of the CpG-28 oligonucleotide, […] (SEQ ID NO: 1)). After 2 immunizations, the CD8+immune response was evaluated on day 14 using a gamma interferon (IFNg)-secretion Elispot assay, after restimulation of total splenocytes with the relevant MHC class-1 epitope ([…] (SEQ ID NO: 2) for Ovalbumine or […] (SEQ ID NO: 3) for human gp100)
Other oxidizing agents such as hydrogen peroxide (H2O2) or ammonium persulfate (APS) can be used (FIG. 3).

[5] = 10 kD filtration and SDS-PAGE of melanin-EphA2 complex; format: physicochemical
Protocol: FIG. 11: SDS-PAGE (16% polyacrylamide gel) of various preparations: lane MW: molecular weight marker; lane “Ctrl EphA2”: control peptide EphA2 alone (SEQ ID NO: 9); lane “Filtrate”: filtrate of complex melanin-EphA2 after filtration on a 10 kD filter; lane “Retentate”: retentate of complex melanin-EphA2 after filtration on a 10 kD filter, resuspension, dissolution and heating in loading buffer containing SDS. (Melanin-EphA2 was obtained by co-incubating EphA2 peptide with L-Dopa (weight ration 1:10) in arerated conditions)
A solution of L-Dopa was mixed with an EPHA2 peptide ([…], SEQ ID NO: 9) at a weight ratio L-Dopa:epitope of 1:4. The mixture was then oxidized at pH 8.5 in aerated conditions.

[6] = Thin-layer chromatography of peptide and oxidized Dopa (complex formation); format: physicochemical; conditions: 72-hour incubation pH 8.5; hgp100 1 mg/ml, Dopa 10 mg/ml
Protocol: FIG. 8: Thin-layer chromatography (TLC) after a 72-hour incubation at pH 8.5 (Tris buffer). Left: hgp100 (SEQ ID NO: 3). only; middle: hgp100 (1 mg/ml) and Dopa (10 mg/ml), co-incubated with O2; right: hgp100 (1 mg/ml) added after Dopa (10 mg/ml) had been incubated with O2. […] (TLC was performed on aluminium foils, coated with a thin layer of silica gel as the stationary phase. After the samples have been loaded, a mixture of 1-Butanol/acetic acid/H2O (2/1/1) was used as the mobile phase. The TLC plates were then sprayed with ninhydrin reagent)
FIG. 9: Thin-layer chromatography (TLC) after a 72-hour incubation at pH 8.5 (Tris buffer). Left: hgp100 (, SEQ ID NO: 3) only; other lanes: hgp100 (1 mg/ml) incubated with various doses of Dopa (Dopa/hgp100 weight ratios: from 1/5 to 10/1). […] (TLC: similar conditions as FIG. 8).
In vitro experiments with Thin-layer chromatography (TLC) support the hypothesis that the incubation of the peptide while the catechol is being oxidized modifies the characteristic of the final formulation and that a complex is formed between the two entities (FIG. 8).

[7] = tested on: viral epitope gPr73 (SFAVATTAL); experiment: CD8 immune response to viral epitope gPr73 variants co-incubated with L-Dopa; format: in vivo; conditions: Balb/c mice; peptide co-incubated with L-Dopa, mixed to CpG-28
Protocol: (§3) Adding arginines (R) or lysines (K) to the NH2-terminal end of the peptides enhanced the immune response when compared to unmodified Trp2 (animals were immunized once with formulations consisting of the peptide (10 μg/mouse) co-incubated with L-Dopa (100 μg/mouse), then mixed to CpG-28 (10 μg/mouse). The CD8 immune responses were assessed on day 8).
Similar data were obtained with a viral epitope in Balb/c mice (gPr73: SFAVATTAL, SEQ ID NO: 8). […] In both cases, if a glutamate (E) was added next to the lysine, the efficacy was reduced (Table 2).

[8] = tested on: MHC I epitope of Trp2 (VYDFFVWL); experiment: CD8 immune response to Trp2 epitope variants co-incubated with L-Dopa; format: in vivo, mice; conditions: peptide 10 μg/mouse co-incubated with L-Dopa 100 μg/mouse, then mixed to CpG-28 10 μg/mouse; immunized once; day 8
Protocol: as §2, §3

[9] = tested on: anti-ovalbumine antibodies; experiment: Humoral response: anti-ovalbumine antibody titers; format: in vivo, C57/Bml6 mice; conditions: day 14
Protocol: Ovalbumin protein (1 μg) was mixed to Dopa (1 μg) at pH 7.4, incubated for 4 hours with APS (0.3 μg), and injected subcutaneously with 10 μg in C57/Bml6 mice on day 0 and day 7.

[10] = 1 μg mixed to Dopa 1 μg pH 7.4, 4 hours APS 0.3 μg, subcutaneous day 0 and day 7

Molecule: NC(Cc1cc(O)c(O)cc1O)C(=O)O (stereo not shown) [6-hydroxydopa, 6-Hydroxy-DOPA]
- CD8 immune response with various melanin precursors ([1]; 18 hours oxygen): significant CD8 immune response

Molecule: CC(C)(C)OC(=O)N[C@@H](Cc1ccc(O)c(O)c1)C(=O)O [Boc-Dopa, N-(tert-Butyloxycarbonyl)-L-dopa]
- CD8 immune response with various melanin precursors ([1]; 18 hours oxygen): reduced magnitude

Molecule: N[C@H](Cc1ccc(O)c(O)c1)C(=O)O [D-Dopa, D-3,4-dihydroxyphenylalanine]
- CD8 immune response with various melanin precursors ([1]; 18 hours oxygen): significant CD8 immune response

Molecule: NCCc1ccc(O)c(O)c1 [Dopamine]
- CTL immune response ([2]; long OVA peptide combined to Dopamine, incubated 4 hours with APS, + 10 μg CpG-28): triggered an immune response
- CD8 immune response with various melanin precursors ([1]; 18 hours oxygen): reduced magnitude
- precipitation under centrifugation [3]: precipitated
- aggregates under light microscopy [3]: large aggregates were seen under light microscopy

Molecule: N[C@@H](Cc1ccc(O)c(O)c1)C(=O)O [L-Dopa, L-3,4-dihydroxyphenylalanine]
- CD8 immune response (IFNg spots) [2]: able to induce IFNg spots
- CD8 immune response ([1]; 10 μg hgp100 epitope co-incubated with 100 μg DOPA pH 8.5, 18 hours oxygen, + CpG-28): significant CD8 immune response
- CD8 immune response with various melanin precursors ([1]; 18 hours oxygen): significant CD8 immune response
- optimal molar ratio of oxidant/Dopa for vaccine efficacy [4]: around 1/4
- precipitation under centrifugation [3]: did not precipitate
- aggregates under light microscopy [3]: no aggregates can be seen
- filterability of the oxidized solution ([3]; incubated with oxygen at pH8.5): can be filtered through a 0.2 μm filter, but not through a 100 kDalton-cut off filter
- stability of the oxidized solution ([3]; incubated with oxygen at pH8.5): stable for several weeks

Molecule: Oc1cccc2cccc(O)c12 [di-hydroxynaphtalene]
- CD8 immune response with various melanin precursors ([1]; 18 hours oxygen): significant CD8 immune response

Molecule: D-pOVA: Ovalbumine epitope synthesized with a DOPA at the beginning of the peptide ([Dopa]SIINFEKL)
- CD8 / CTL immune response [2]: strong CTL immune responses

Molecule: FSHHNIIRL (also: oxidized with L-Dopa to melanin) [EPHA2 peptide]
- peptide from retentate heated in loading buffer containing SDS (SDS-page) ([5]; 16% polyacrylamide gel): got dissociated from melanin
- peptide in the filtrate after 10 kD filtration ([5]; peptide oxidized with L-Dopa at pH 8.5 in aerated conditions): no peptide could detected in the filtrate

Molecule: KVPRNQDWL (human gp100 epitope) [hgp100]
- mean number of IFNγ-secreting lymphocytes +/−SD ([1]; C57BL/6 mice, gp100 10 μg/mouse, with or without L-Dopa 40 μg/mouse (18 hours aerated), combined to poly I:C 10 μg/mouse): 1+/−1
- minimal dose of the epitope required to induce CTLs ([1]; gp100-melanin formulation): 0.5 µg
- IFNγ-secreting lymphocytes when combined with CpG ([1]; mixed with TLR9 agonist CpG-28, n=8 mice/group): not
- CTL response, epitope added after L-Dopa had been oxidized instead of before ([1]; mouse, in vivo): a reduction in the CTL response was observed
- free peptide on TLC, Dopa and peptide co-incubated with oxidizing agent [6]: not seen any more and not
- free peptide on TLC, peptide added after Dopa had been oxidized [6]: Free peptide was seen

Molecule: SFAVATTAL (Viral epitope of gPr73)
- number of IFNy-secreting lymphocytes mean +/− SD [7]: 5 +/− 4

Molecule: SIINFEKL [pOVA]
- CD8 / CTL immune response [2]: did not trigger any significant CD8 immune response
- CD8 immune response (IFNg spots) [2]: did not trigger any significant CD8 immune response
- amount of epitope sufficient to detect an immune response ([2]; epitope with DOPA model, data not shown): ≤ 10 ng

Molecule: SMLVLLPDEVSGLEQLESIINFEKLTEWTS (long OVA peptide) [SEQ ID NO:4]
- immune response, Dopamine as melanin precursor [2]: highest immune response

Molecule: SMLVLLPKKVSGLKQLESIINFEKLTKWTS (positive long OVA peptide) [SEQ ID NO: 6, long OVA peptide modified to be positively charged]
- immune response after 2 immunizations, Dopa as melanin precursor ([2]; + 10 μg CpG-28): strong
- immune response, Dopamine as melanin precursor [2]: lowest one

Molecule: SMLVLLPKSVSGLSQLESIINFEKLTSWTS (neutral long OVA peptide) [SEQ ID NO: 5, long OVA peptide modified to be neutral]
- immune response after 2 immunizations, Dopa as melanin precursor ([2]; + 10 μg CpG-28): intermediate
- immune response, Dopamine as melanin precursor [2]: intermediate

Molecule: TAAACGTTATAACGTTACGACGTCAT (listed as DNA, chemistry not given here) [CpG-28]
- immune responses, adjuvant added before versus after oxidation ([1]; L-DOPA 100 μg + hgp100 epitope, 18 hours oxygen): similar
- number of IFNy-secreting lymphocytes mean +/− SD [1]: 211 +/− 83

Molecule: TCCATGACGTTCCTGACGTT [compound 1826]
- number of IFNy-secreting lymphocytes mean +/− SD [1]: 134 +/− 54

Molecule: TGACTGTGAACGTTCGAGATGA [ISS]
- number of IFNy-secreting lymphocytes mean +/− SD [1]: 147 +/− 63

Molecule: VYDFFVWL (MHC I epitope of Trp2)
- number of IFNy-secreting lymphocytes mean +/− SD [8]: 30 +/− 34

Molecule: pOVA-D: Ovalbumine epitope synthesized with a DOPA at the end of the peptide (SIINFEKL[Dopa])
- CD8 / CTL immune response [2]: strong CTL immune responses

B1: Ovalbumin protein: Ovalbumin protein mixed to Dopa at pH 7.4 and incubated with APS (composition melanin/antigen) (protein)
chain: GSIGAASMEFCFDVFKELKVHHANENIFYCPIAIMSALAMVYLGAKDSTRTQINKVVRFDKLPGFGDSIEAQCGTSVNVHSSLRDILNQITKPNDVYSFSLASRLYAEERYPILPEYLQCVKELYRGGLEPINFQTAADQARELINSWVESQTNGIIRNVLQPSSVDSQTAMVLVNAIVFKGLWEKAFKDEDTQAMPFRVTEQESKPVQMMYQIGLFRVASMASEKMKILELPFASGTMSMLVLLPDEVSGLEQLESIINFEKLTEWTSSNVMEERKIKVYLPRMKMEEKYNLTSVLMAMGITDVFSSSANLSGISSAESLKISQAVHAAHAEINEAGREVVGSAEAGVDAASVSEEFRADHPFLFCIKHIATNAVLFFGRCVSP
- titer of anti-ovalbumine antibodies IgG1 [9, 10]: 1/8000
- titer of anti-ovalbumine antibodies IgG2b [9, 10]: 1/5250
- type of immune response (IgG subtypes) [9]: mixed Th1 and Th2 immune response

Source: US10857227B2, “Immunostimulatory compositions” (ASSISTANCE PUBLIQUE-HOPITAUX DE PARIS, priority 2015, dated 2020)
